Laboratory results from article PMC9102502, “The Influence of Selected Antipsychotic Drugs on Biochemical Aspects of Alzheimer’s Disease” (International Journal of Molecular Sciences, 2022).
Read-outs that look alike come from different tables or passages of the source.

What was measured:
BuChE [1] = details: read-out: IC50 BuChE, cited from earlier work
BuChE [2] = target: BuChE (Homo sapiens, UniProt P06276); test: Kinetic parameters of enzymatic reaction (Hanes–Woolf), BuChE; assay type: biochemical; set-up: The solution of plasma 200-fold diluted with 0.9% NaCl; from tissue; host or cells: citrated plasma from blood of healthy human donors; details: for type of inhibition of BuChE: from Km(i), Vmax(i) vs Km, Vmax, mixed inhibition
Experimental: Kinetic parameters were obtained on the basis of three individual experiments carried out on different biological materials. For this purpose, various concentrations of substrates (ATC and BTC) were used in experiments. The type of inhibition and kinetic parameters of enzymatic reactions were obtained by linear regression using the Hanes–Woolf equations.
(§1) AChE SI (selectivity index) was calculated by using the following formula: SI = IC50 of BuChE/IC50 of AChE. However, BuChE SI was defined as IC50 of AChE/IC50 of BuChE. Maximal velocity (Vmax) and the Michaelis constant (Km) were calculated with the use of linear regression—according to the Hanes–Woolf plot.

human erythrocytes [3] = test: Methemoglobin formation in RBC with AAPH; assay type: cell-based; details: 24 h, AAPH control 78.1%
Experimental: The blood samples were centrifuged (3000 rpm, 10 min, 20 °C, Micro 22 R centrifuge, Hettich Zentrifugen, Tuttlingen, Germany) to separate erythrocytes from the plasma and washed three times with 0.9% saline (NaCl). […] The erythrocytes were suspended in 0.9% saline. As control of basal hemolysis, erythrocytes were incubated with 0.9% NaCl. For total hemolysis control erythrocytes were incubated with 2.0% v/v Triton X-100. Incubation with Triton X-100 and K4[Fe(CN)6] (at concentration 50 g/L) was performed to control methemoglobin (MetHb) formation. Moreover, an antioxidant control containing ascorbic acid (AA) at a concentration of 10 µg/mL was prepared, while AAPH at a concentration of 50 mmol/L was an oxidizing agent. Antipsychotics at concentrations equaling their maximum therapeutic plasma concentrations (TPCmax), as well as 5-fold higher (5 × TPCmax) and 5-fold lower than TPCmax (1/5 × TPCmax), and the oxidizing agent AAPH at a concentration of 50 mmol/L, were added to 2% RBC suspension. Controls and tested samples were incubated at 37 °C. […] For each measurement, 0.5 mL samples were taken from incubated Eppendorf tubes and centrifuged (3000 rpm, 10 min). […] The percentage of hemolysis was calculated with the following formula:Hemolysis (%) = (Asample/Atotal hemolysis) × 100%(1) where Asample—absorbance of the test sample; Atotal hemolysis—the absorbance of the reference sample with 2% Triton X solution, corresponding to complete hemolysis.

[4] = target: T1, human erythrocyte acetylcholinesterase (Homo sapiens, UniProt P22303); test: AChE inhibition, modified Ellman's method; assay type: biochemical; details: for AChE reaction velocity: control 0.259 ± 0.013 A/min
T1 construct: solution of hemolyzed erythrocytes diluted 400-fold; from tissue; host or cells: hemolyzed erythrocytes from blood of healthy human donors
Experimental: (§2) The activity of both cholinesterases (AChE and BuChE) were assessed spectrophotometrically according to the Ellman’s method with some modifications by Worek et al.. This test development included experimental determination of the optimal testing conditions. For all measurements, 37 °C was used as the best temperature for enzymatic determinations in material of human origin.
(§3) The solution of plasma 200-fold diluted with 0.9% NaCl and solution of hemolyzed erythrocytes diluted 400-fold with 0.9% were incubated (37 °C, 15 min) with 5 μL DTNB (0.01 mol/L) and 10 μL tested compound at a wider range of concentration than the therapeutic range in order to assess the overall effect of the compound on human esterases (AChE and BuChE). The controls without antipsychotics, containing only DTNB and diluted plasma or diluted solution of hemolyzed erythrocytes, were prepared. […] The final volume of a sample was 500 μL. […] The maximal velocity of the reaction was determined on the basis of changes in absorbance over time.
as §1

astrocytes = test: WST-1 viability under AAPH-induced oxidative stress, astrocytes; assay type: cell-based, human; details: benperidol 5 and 10 μg/L, penfluridol 12.5 μg/L, pimozide 15 μg/L, promazine 25 and 50 μg/L
Experimental: WST-1 assay (Takara, Takara Bio Europe, Saint-Germain-en-Laye, France) was used to assess the effects of antipsychotics on the growth of HUVEC and astrocytes. The experiments were conducted as described previously. HUVEC were seeded at a density of 7500 cells, and astrocytes at 5000 cells per well on 96-well microplates and cultured for 24 h followed by treatment with compounds at ½ × TPCmax and TPCmax or pure medium as a control (v = 100 μL) for another 24 h (37 °C, 5% CO2). Subsequently, the cells were washed with culture medium (100 μL) and WST-1 reagent diluted in medium (10 μL of reagent + 90 μL of medium) was added. The plates were incubated at 37 °C in 5% CO2 for another 90 min for HUVEC and 60 min for astrocytes. The absorbance was read at 450 nm using a microplate reader (iMARK, Bio-Rad, Hercules, CA, USA). The cells viability was expressed as a percentage of the control samples which constituted 100% viability.
Moreover, the WST-1 assay was used to evaluate potential protective effects of antipsychotics on the growth of HUVEC and astrocytes under conditions of AAPH-induced oxidative stress. The experimental conditions were the same as in viability studies. AA at the final concentration of 10 μg/mL was used as an antioxidant control. After reaching the confluence, the antipsychotics were added at concentrations equaling ½ × TPCmax and TPCmax. After 1 h incubation under standard conditions, 50 μL AAPH was added to the wells containing tested compounds or AA. The AAPH concentration was chosen on the basis of preliminary experiments—17.5 mmol/L in HUVEC experiments, and 15.0 mmol/L in the case of astrocytes.

[5] = target: T2, recombinant human β-amyloid (1–42) (Homo sapiens, UniProt P05067); test: Beta-amyloid aggregation, Thioflavin T fluorescence; assay type: biochemical; details: 24 and 48 h; both tested concentrations
T2 construct: recombinant human β-amyloid (1–42; ultrapure); purchased Sigma-Aldrich (St. Louis, MO, USA)
Experimental: Aβ42 peptide was dissolved in DMSO and left to hydrate for a few minutes. The solution was centrifuged at 10,000 rpm for 5 min at 4 °C to separate any precipitated material. The solution at a concentration of 220 μmol/L was stored in small aliquots at a temperature of −30 °C and before each experiment it was restored at 37 °C for 15 min. Test samples containing Aβ42 solution at the final concentration of 20 μmol/L was incubated with antipsychotics at concentrations equaling their TPC and 1/2 × TPC (v = 10 µL). The final volume of the test samples was 100 μL. The positive control constituted a sample of Aβ42 peptide, whereas the negative control contained tannic acid at the final concentrations of 0.1 µmol/L and 10 µmol/L. The fibrillation reaction was set up by addition of thioflavin ThT dye at a concentration of 5 µmol/L. The fluorescence intensity was measured at room temperature with Ex/Em = 440 nm/484 nm (Synergy H1; BioTek, Winooski, VT, USA). The measurements of fluorescence intensity expressed as relative fluorescence units (RFU) were taken at 10, 30, 60 and 90 min and then after 24 and 48 h. The fluorescence intensity measured for control equaled 100% of Aβ aggregation and it was used to estimate the inhibitory properties of the tested antipsychotics.

human erythrocytes [6] = test: Methemoglobin formation in RBC, compounds alone; assay type: cell-based; details: 250 μg/L
Experimental: (§4) The blood samples were centrifuged (3000 rpm, 10 min, 20 °C, Micro 22 R centrifuge, Hettich Zentrifugen, Tuttlingen, Germany) to separate erythrocytes from the plasma and washed three times with 0.9% saline (NaCl). […] The erythrocytes were suspended in 0.9% saline. As control of basal hemolysis, erythrocytes were incubated with 0.9% NaCl. For total hemolysis control erythrocytes were incubated with 2.0% v/v Triton X-100. Incubation with Triton X-100 and K4[Fe(CN)6] (at concentration 50 g/L) was performed to control methemoglobin (MetHb) formation. Moreover, an antioxidant control containing ascorbic acid (AA) at a concentration of 10 µg/mL was prepared, while AAPH at a concentration of 50 mmol/L was an oxidizing agent. Antipsychotics at concentrations equaling their maximum therapeutic plasma concentrations (TPCmax), as well as 5-fold higher (5 × TPCmax) and 5-fold lower than TPCmax (1/5 × TPCmax), and the oxidizing agent AAPH at a concentration of 50 mmol/L, were added to 2% RBC suspension. Controls and tested samples were incubated at 37 °C. […] The percentage of hemolysis was calculated with the following formula:Hemolysis (%) = (Asample/Atotal hemolysis) × 100%(1) where Asample—absorbance of the test sample; Atotal hemolysis—the absorbance of the reference sample with 2% Triton X solution, corresponding to complete hemolysis.

human erythrocytes [7] = test: RBC hemolysis, compounds alone; assay type: cell-based; details: 2% human erythrocyte (RBC) suspension, read-out: increase of disintegration of the erythrocyte membrane (hemolysis)
Experimental: as §4

[8] = target: T3, human plasma butyrylcholinesterase (Homo sapiens, UniProt P06276); test: BuChE inhibition, modified Ellman's method; assay type: biochemical; details: experimental data, mean ± SD, n = 6–9
T3 construct: The solution of plasma 200-fold diluted with 0.9% NaCl; from tissue; host or cells: citrated plasma from blood of healthy human donors
Experimental: as §2, §3, §1

AChE = details: read-out: IC50 AChE, cited from earlier work
[9] = reference values according to the literature ref 28
[10] = reference values according to the literature ref 31
[11] = reference values according to the literature ref 32
[12] = reference values according to the literature ref 33

BuChE, sequence (P06276 29-602): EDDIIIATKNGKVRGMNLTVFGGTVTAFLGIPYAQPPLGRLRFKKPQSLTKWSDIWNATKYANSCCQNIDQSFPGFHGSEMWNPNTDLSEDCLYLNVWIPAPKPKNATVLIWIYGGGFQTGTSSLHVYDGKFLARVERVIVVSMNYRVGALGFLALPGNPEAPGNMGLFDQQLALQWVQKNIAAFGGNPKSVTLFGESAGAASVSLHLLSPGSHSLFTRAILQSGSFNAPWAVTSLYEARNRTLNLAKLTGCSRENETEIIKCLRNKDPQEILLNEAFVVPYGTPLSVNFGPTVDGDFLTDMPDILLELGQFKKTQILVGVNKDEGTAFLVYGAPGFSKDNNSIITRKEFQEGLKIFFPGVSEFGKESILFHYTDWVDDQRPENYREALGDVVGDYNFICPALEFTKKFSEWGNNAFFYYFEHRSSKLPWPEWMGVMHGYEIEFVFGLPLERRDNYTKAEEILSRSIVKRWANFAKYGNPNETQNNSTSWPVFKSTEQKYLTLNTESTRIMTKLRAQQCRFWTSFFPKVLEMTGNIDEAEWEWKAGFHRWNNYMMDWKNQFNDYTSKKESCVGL
T1 sequence (P22303 32-617 isoform P22303-2 limits assumed): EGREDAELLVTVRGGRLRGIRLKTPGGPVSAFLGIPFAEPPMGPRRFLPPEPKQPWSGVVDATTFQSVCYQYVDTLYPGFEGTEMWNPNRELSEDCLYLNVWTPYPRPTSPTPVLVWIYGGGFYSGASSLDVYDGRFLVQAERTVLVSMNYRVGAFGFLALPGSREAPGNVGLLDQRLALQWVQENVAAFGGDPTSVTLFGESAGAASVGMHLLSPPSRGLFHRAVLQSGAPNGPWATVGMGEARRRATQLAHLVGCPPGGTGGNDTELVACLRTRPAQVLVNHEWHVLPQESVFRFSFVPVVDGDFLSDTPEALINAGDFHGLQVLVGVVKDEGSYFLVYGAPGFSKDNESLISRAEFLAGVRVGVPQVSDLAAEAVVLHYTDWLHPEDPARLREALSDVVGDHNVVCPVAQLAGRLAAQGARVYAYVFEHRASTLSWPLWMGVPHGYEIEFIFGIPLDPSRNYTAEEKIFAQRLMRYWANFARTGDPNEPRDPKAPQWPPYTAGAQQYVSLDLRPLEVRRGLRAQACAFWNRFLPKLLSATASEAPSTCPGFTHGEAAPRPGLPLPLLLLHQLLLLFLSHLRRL
T3 sequence (P06276 29-602): as the sequence (P06276 29-602) above
T2 sequence (P05067 672-713 limits assumed): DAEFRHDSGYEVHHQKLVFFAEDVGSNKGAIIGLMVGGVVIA

With `CN(C)CCCN1c2ccccc2Sc2ccccc21` [Promazine, promazine] the “Vmax(i) BuChE” value (BuChE [2]; compound at its IC50) was 0.144 ± 0.036 A/min, the “Vmax(i) BuChE” value (BuChE [2]; compound at ½ IC50) was 0.192 ± 0.059 A/min and the “type of inhibition of BuChE” value (BuChE [2]) was “same type of inhibition”. The “methemoglobin formation with AAPH” value (human erythrocytes [3]; 10 μg/L) was 60.7%, the “methemoglobin formation with AAPH” value (human erythrocytes [3]; 50 μg/L) was 54.5% and the AChE reaction velocity ([4]; 100 µg/L) was 0.245 ± 0.015 A/min. The AChE reaction velocity ([4]; 200 µg/L) was 0.232 ± 0.016 A/min, the IC50 ([4]; theoretical values calculated on the basis of extrapolated plots) was > 2 µM and the “astrocyte viability compared with the control (pure AAPH)” value (astrocytes) was “statistically significant increase”. For the same molecule, the “effect on Aβ aggregation after a longer incubation time” value [5] was “substantially inhibit”, the formation of methemoglobin (human erythrocytes [6]; 5 h of incubation) was 39% and the formation of methemoglobin (human erythrocytes [6]; 24 h of incubation) was 64%. The hemolysis at 5 h, 250 μg/L (human erythrocytes [7]; 5 h of incubation) was > 45%, the hemolysis at 24 h, 250 μg/L (human erythrocytes [7]; 24 h of incubation) was > 59% and the IC50 ([8]; IC50 BuChE) was 0.186 µM. For the same molecule, the IC50 ([8]; read-out: IC50 BuChE) was 0.19 ± 0.02 µM.

In the case of `CCN(C)C(=O)Oc1cccc([C@H](C)N(C)C)c1` [Rivastigmine, rivastigmine], the IC50 (AChE; [9]) is listed as […], the IC50 (AChE; [10]) is listed as […] and the IC50 (AChE; [11]) is listed as […]. The IC50 (AChE; [12]) was […], the “Vmax(i) BuChE” value (BuChE [2]; compound at its IC50) was 0.122 ± 0.003 A/min and the “type of inhibition of BuChE” value (BuChE [2]) was “noncompetitively”. The IC50 (BuChE [1]; [9]) was […], the IC50 (BuChE [1]; [10]) was […] and the IC50 (BuChE [1]; [11]) was […]. For the same molecule, the IC50 (BuChE [1]; [12]) was […].
